Test results from the OPERA property sets (Mansouri et al. 2018).
Peptide text beside a SMILES is read from it.

SMILES | logP | logD (pH 7.4)
Cc1ccc2[nH]ccc2c1 | 2.68 | –
NS(=O)(=O)c1ccc2c(c1)S(=O)(=O)NCN2 | -0.52 | –
CCCCCCc1ccc(O)cc1O | 3.45 | –
OCCCCCc1cccnc1 | 1.41 | –
C=CCCCCCC | 4.57 | –
CCCCCCCOc1cccc(NC(=O)OCCN2CCCCC2)c1 | 5.53 | –
CCCC(=O)OC1(C(=O)CCl)C(C)CC2C3CCC4=CC(=O)C=CC4(C)C3(F)C(O)CC21C (configuration not stated) | 3.63 | –
CC(=O)OCc1coc(Cc2ccccc2)c1 | 3.24 | –
OCCCCc1ccccn1 | 0.86 | –
CC(=O)c1ccc(C#N)cc1 | 1.22 | –
Oc1ccc(C2CCCCC2)cc1 | 4.22 | –
O=C(O)CCCc1ccc(N(CCCl)CCCl)cc1 | – | 1.7
CC1=NS(=O)(=O)c2ccc(C(F)(F)F)cc2N1 | 1.59 | –
CCCC(N)C(=O)O (configuration not stated) | -2.11 | –
Cc1cccc(C(=O)O)c1O | 2.86 | –
CC(C)N(C)/N=N/c1ccc(C(N)=O)cc1 | 2.02 | –
Cc1ccc(NC(=O)c2ccccc2)c(O)c1 | 3.08 | –
CC(=O)N[C@@H](Cc1c[nH]c2ccccc12)C(=O)N[C@@H](C)C(=O)N[C@H](C(N)=O)C(C)C (Ac-Trp-Ala-Val-NH2) | 0.36 | –
CC(=O)C(=Cc1cccc(Cl)c1)C(C)=O | 2.26 | –
CNC(=O)Oc1ccc2ccccc2c1 | 2.56 | –
N#Cc1c[nH]c(=O)[nH]c1=O | -0.93 | –
CC(=Cc1ccccc1)[N+](=O)[O-] | 2.52 | –
CCC(C)c1cccc(C(C)CC)c1O (configuration not stated) | 4.36 | –
CC(=O)NCC(=O)N[C@@H](CC(C)C)C(=O)NCC(N)=O (Ac-Gly-Leu-Gly-NH2) | -1.23 | –

SMILES | logP | logD (pH 7.4)
CC(C)c1ccccc1O | 2.88 | –
COc1ccc(NS(=O)(=O)c2ccc(N)cc2)cc1 | 1.51 | –
CC(C)C(N)C(=O)O (configuration not stated) | -2.26 | –
NNC(=O)c1ccccc1[N+](=O)[O-] | -0.54 | –
NCc1cc(O)no1 | -2.39 | –
CC(C)C[N+](=O)[O-] | 1.4 | –
c1ccc(Nc2cccc3ccccc23)cc1 | 4.2 | –
O=C(O)c1ccccc1I | 2.4 | –
CCC(C)CC(=O)OCC1CCC(n2cnc3c(=O)[nH]cnc32)O1 (configuration not stated) | 1 | –
O=[N+]([O-])c1cccc(I)c1 | 2.94 | –
CCCCCC(=O)OCC(=O)C1(O)CCC2C3CCC4=CC(=O)CCC4(C)C3C(O)CC21C (configuration not stated) | 4.48 | –
CNc1nc(NC(C)C)nc(SC(F)F)n1 | 3.27 | –
CC(=O)Nc1ccccc1Cl | 1.28 | –
O=C(O)Cc1c(Cl)ccc(Cl)c1Cl | 3.2 | –
c1c[nH]nn1 | -0.29 | –
CCc1cccc(O)c1 | 2.4 | –
CC(=O)C(=Cc1ccc(Cl)cc1)C(C)=O | 2.32 | –
Cc1cc(N)nc(C)n1 | 0.39 | –
CCCCCCc1ccncc1 | 4.35 | –
O=[N+]([O-])c1cccc(Cl)c1Cl | 3.05 | –
CN(Cc1ccc(C#N)cc1)N=O | 0.95 | –
c1ccc(Cn2ccnn2)cc1 | 1.27 | –
CCCC(=NOCC)C1C(=O)CC2(CC(C)CC(C)C2)OC1=O (configuration not stated) | 4.48 | –
CCCNC(=O)c1cccnc1 | 0.66 | –

SMILES | logP | logD (pH 7.4)
O=[N+]([O-])c1ccccc1F | 1.69 | –
C=C(C)C(=O)OCCCC | 2.88 | –
COC(=O)c1ccccn1 | 0.36 | –
CCCCCCCCCC(=O)OC | 4.41 | –
Nc1cc2c3ccccc3ccc2c2ccccc12 | 4.99 | –
CC(=O)NCc1cc(C(=O)NN)ccn1 | -1.58 | –
Clc1cc2ccccc2cc1Cl | 4.42 | –
O=C(Nc1ccc(Cl)cc1)c1cccnc1 | 2.52 | –
NC(=O)c1ccc([N+](=O)[O-])cc1 | 0.82 | –
c1ccc(-c2ccncn2)cc1 | 1.92 | –
O=NN(CCCl)C(=O)Nc1ccccc1 | 2.49 | –
CCOCCOCC | 0.66 | –
Nc1ccc(CCO)cc1 | 0.1 | –
CCCC(=O)OCC(O)CO (configuration not stated) | -0.17 | –
CC(C)CC(=O)NN | -0.31 | –
COc1cc(CCN)cc(OC)c1OC(C)C | 1.52 | –
ClCc1ccccc1 | 2.3 | –
CCN(CC)CC(O)c1ccccc1 (configuration not stated) | 2.02 | –
O=S1(=O)C=Cc2ccccc21 | 0.88 | –
N#Cc1ccc([N+](=O)[O-])cc1 | 1.19 | –
CCOC(=O)c1ccc(N=NN(C)CCO)cc1 | 2.66 | –
O=C(O)C1Cc2cc(Cl)ccc2O1 (configuration not stated) | 2.11 | –
Clc1ccc(-c2cc3ccccn3c2)cc1 | 5.2 | –
O=C(O)Cc1ccccc1Nc1ccc(Cl)c(Cl)c1 | 4.9 | –

SMILES | logP | logD (pH 7.4)
OCCN1CCN(CCCN2c3ccccc3Sc3ccc(C(F)(F)F)cc32)CC1 | 4.36 | –
N#CC(C(=O)NC(CO)C(O)c1ccc([N+](=O)[O-])cc1)c1ccccc1 (configuration not stated) | 1.47 | –
CCC1(C2=CCCCC2)C(=O)NC(=O)N(C)C1=O (configuration not stated) | 2.25 | –
c1cnc2nccnc2c1 | -0.04 | –
CC1N=C(c2ccccc2)c2cc(Cl)ccc2NC1=O (configuration not stated) | 3.33 | –
Cc1cc(=O)cc(C)o1 | 0.1 | –
Nc1ccccc1Oc1ccccc1 | 2.46 | –
O=C1C=CC(=NO)C=C1 | 1.08 | –
CC(=O)c1ccc(N(C)C)cc1 | 2.1 | –
Cc1n[nH]c(C(=O)N(C)Cc2ccccc2)c1[N+](=O)[O-] | 1.65 | –
CNC(=O)Oc1ccccc1OC | 0.81 | –
Clc1cccc2c1CCNCC2 | 2.4 | –
COc1ccc(C(C[N+](=O)[O-])c2ccc(OC)cc2)cc1 | 3.57 | –
CN(C)C(N(C)C)=S(I)c1ccccc1Br (configuration not stated) | 0.06 | –
CCC(=O)OC1(C(C)=O)C(C)CC2C3CCC4=CC(=O)C=CC4(C)C3(F)C(=O)CC21C (configuration not stated) | 3.09 | –
CCCCOc1ccc(O)cc1 | 2.9 | –
CC(C)CCOc1cc(N)ccc1C(=O)O | 2.3 | –
Oc1cccc2cccnc12 | 2.02 | –
COc1cc(C(=O)O)cc(OC)c1O | 1.04 | –
O=[N+]([O-])c1cccc(C(F)(F)F)c1 | 2.62 | –
O=C1Cc2ccccc2N1 | 1.16 | –
Cc1cnc(C)cn1 | 0.63 | –
c1ccc(Cc2ccncc2)cc1 | 2.62 | –
C[C@]12C[C@H](O)[C@H]3[C@@H](CCC4=CC(=O)CC[C@@]43C)[C@@H]1CC[C@@H]2C(=O)CO | 1.94 | –

SMILES | logP | logD (pH 7.4)
CCOC(=O)N(C)C | 0.89 | –
C[C@@H]1C[C@H]2C3C[C@H](F)C4=CC(=O)C=CC4(C)[C@@]3(F)[C@@H](O)CC2(C)[C@@]1(O)C(=O)COC(=O)C(C)(C)C (some centres not stated) | 3.86 | –
CC(=O)Nc1ccc(N(C)C)cc1 | 1 | –
CC(=O)Nc1ccccc1O | 0.72 | –
Nc1nc(N)nc(-c2ccccc2Cl)n1 | 1.19 | –
CS(=O)(=O)ON1C(=O)c2ccc([N+](=O)[O-])cc2C1=O | 1.71 | –
CCN(CC)CCc1cccnc1 | 1.23 | –
Nc1ccc(S(=O)(=O)Nc2nccs2)cc1 | 0.05 | –
C#CCCC(C)=O | 0.58 | –
COc1ccc2[nH]ccc2c1 | 2.06 | –
N#Cc1cccc([N+](=O)[O-])c1 | 1.17 | –
O=C(O)Cc1ccccc1 | 1.41 | –
CCCCn1cnc2c(NC(C)=O)ncnc21 | 0.55 | –
COC(=S)NCCn1c([N+](=O)[O-])cnc1C | 1.15 | –
Nc1ccc(S(=O)(=O)Nc2ccc(Cl)cc2)cc1 | 2.71 | –
CC1CN(N=O)CC(C)N1 (configuration not stated) | 0.73 | –
COC(=O)Nc1nc2ccccc2[nH]1 | 1.52 | –
CC1=NOC(=O)C1=NNc1ccccc1Cl | 2.6 | –
Nc1nnco1 | -1.44 | –
N#Cc1ccc(S(N)(=O)=O)cc1 | 0.23 | –
Nc1ncnc2[nH]cnc12 | -0.09 | –
CCCNC(=O)c1ccc(S(N)(=O)=O)cc1 | 0.51 | –
Clc1ccc2nccnc2c1 | 2.1 | –
CCOC(=O)Oc1cccc2cccnc12 | 1.73 | –

SMILES | logP | logD (pH 7.4)
O=C(Nc1ccn(C2OC(CO)C(O)C2O)c(=O)n1)c1ccccc1 (configuration not stated) | 0.3 | –
NC(=O)c1ccc(I)cc1 | 1.99 | –
COc1cc(SC)c(OC)cc1CC(C)N (configuration not stated) | 2.17 | –
CON(C)C(=O)Nc1ccccc1 | 1.29 | –
CCOC(=O)C(=O)OCC | 0.56 | –
Clc1c(Cl)c(Cl)c2n[nH]nc2c1Cl | 4.17 | –
ON=Cc1ccc(Cl)cc1 | 2.67 | –
O=C(O)COc1ccccc1Br | 2.04 | –
NS(=O)(=O)c1ccccc1 | 0.31 | –
CCCCC(C)(C)c1ccc(C2CCCC(O)C2)c(O)c1 (configuration not stated) | 5.43 | –
NC(=O)N(CCCl)N=O | 0.57 | –
CCNc1nc(NC(C)C)nc(SC(F)F)n1 | 3.7 | –
CCCn1cnc2c(N)ncnc21 | 0.74 | –
CSc1nnc(C(C)(C)C)c(=O)n1N | 1.7 | –
CC(C)N1CCOC(c2ccccc2)C1 (configuration not stated) | 2.3 | –
CC(=O)N[C@H](C(=O)N[C@H](C(N)=O)C(C)C)C(C)C (Ac-Val-Val-NH2) | -0.32 | –
COC(=O)C(CC(C)C)NC(C)=O (configuration not stated) | 0.84 | –
Oc1c(O)c(Cl)c(Cl)c(Cl)c1Cl | 4.29 | –
O=C(O)CCCn1nnc2ccccc21 | 0.01 | –
CCCCCNc1nc(NC)nc(SC(F)F)n1 | 4.42 | –
C1COC1 | -0.14 | –
Cc1cccc(OC(=O)CNC(=O)c2ccccc2)c1 | 2.72 | –
CCOC(=O)C=Cc1ccccc1 | 2.99 | –
CN(C(=S)c1ccccc1)c1ccccc1 | 3.12 | –

SMILES | logP | logD (pH 7.4)
CC12CCC3C(CCC4CC(=O)CCC43C)C1CCC2=O (configuration not stated) | 3.6 | –
CCCCCNc1nc(NCC)nc(SC(F)F)n1 | 4.71 | –
CNCC(=O)O | -2.78 | –
O=c1nc[nH]c(=O)[nH]1 | -1.87 | –
Brc1ccc2[nH]ccc2c1 | 3 | –
CCCC(NC(C)=O)C(=O)OC (configuration not stated) | 0.33 | –
CCOC(=O)CNC(=O)C=[N+]=[N-] | -0.08 | –
COC(=O)CNC(=O)c1ccccc1 | 0.82 | –
CC(C)I | 2.89 | –
CN1CCC(CN2c3ccccc3Sc3ccccc32)C1 (configuration not stated) | 5.23 | –
O=[N+]([O-])O[C@H]1CO[C@H]2[C@@H]1OC[C@H]2O[N+](=O)[O-] | 1.31 | –
CCC1Nc2cc(Cl)c(S(N)(=O)=O)cc2S(=O)(=O)N1 (configuration not stated) | 0.3 | –
Cc1ccsc1 | 2.34 | –
CN(C)N=Nc1nc[nH]c1C(N)=O | -0.24 | –
FC(F)(F)c1nc2ccccc2[nH]1 | 2.67 | –
Nc1nc2[nH]cnc2c(=O)[nH]1 | -0.91 | –
COc1ccc(OC)c(N)c1 | 1.2 | –
COc1nccnc1NS(=O)(=O)c1ccc(N)cc1 | 0.7 | –
CCCCCCCCl | 4.15 | –
NC(=O)CF | -1.05 | –
Cc1ccccc1OCC(=O)NNC(C)C | 1.83 | –
CN(C)C#N | -0.15 | –
CN(C)c1ccc([N+](=O)[O-])cc1 | 2.27 | –
